Experimental data reported in patent US11207320B2, “Compositions and methods for cancer expressing PDE3A or SLFN12” (The Broad Institute, Inc., priority 2015, dated 2021).
Where two headings read alike, the source gives them in different places.

Experiments:
PDE10A2 = biological target: T1, PDE10A2 (Homo sapiens, UniProt Q9Y233); test: Phosphodiesterase inhibition reactions (Caliper panel); format: biochemical; conditions: PDE10A2, 100 nM
T1 construct: Caliper
Description: (§1) DNMDP concentration was 100 nM.

PDE2A = biological target: T2, PDE2A (Homo sapiens, UniProt O00408); test: as above; format: biochemical; conditions: 100 nM
T2 construct: Caliper
T2 sequence (O00408 whole entry, species assumed): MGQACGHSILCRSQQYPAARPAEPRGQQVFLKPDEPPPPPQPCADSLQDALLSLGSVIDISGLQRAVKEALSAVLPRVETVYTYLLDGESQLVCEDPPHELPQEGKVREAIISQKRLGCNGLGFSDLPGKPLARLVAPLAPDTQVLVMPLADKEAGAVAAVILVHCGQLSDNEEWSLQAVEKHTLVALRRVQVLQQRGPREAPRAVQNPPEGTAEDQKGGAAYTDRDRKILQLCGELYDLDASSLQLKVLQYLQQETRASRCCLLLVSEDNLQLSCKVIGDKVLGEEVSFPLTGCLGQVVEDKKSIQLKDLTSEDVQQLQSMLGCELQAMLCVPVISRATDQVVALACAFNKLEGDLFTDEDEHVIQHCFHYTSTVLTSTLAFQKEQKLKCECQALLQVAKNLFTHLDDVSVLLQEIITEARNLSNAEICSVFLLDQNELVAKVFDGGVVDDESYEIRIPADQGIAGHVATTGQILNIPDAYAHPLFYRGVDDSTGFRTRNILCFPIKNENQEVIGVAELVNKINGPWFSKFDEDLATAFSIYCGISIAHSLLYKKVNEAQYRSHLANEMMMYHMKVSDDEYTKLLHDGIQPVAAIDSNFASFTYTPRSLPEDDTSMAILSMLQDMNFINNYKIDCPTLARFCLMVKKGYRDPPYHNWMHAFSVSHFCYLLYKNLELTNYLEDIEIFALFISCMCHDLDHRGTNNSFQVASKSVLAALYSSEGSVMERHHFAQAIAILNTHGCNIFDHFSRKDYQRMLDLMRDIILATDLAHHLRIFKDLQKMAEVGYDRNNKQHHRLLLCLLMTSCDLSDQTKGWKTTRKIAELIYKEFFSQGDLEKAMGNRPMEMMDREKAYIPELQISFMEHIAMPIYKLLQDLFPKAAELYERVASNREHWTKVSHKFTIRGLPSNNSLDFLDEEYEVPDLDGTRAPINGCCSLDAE
Description: as §1

PDE4D3 = biological target: T3, PDE4D3 (Homo sapiens, UniProt Q08499); test: as above; format: biochemical; conditions: PDE4D3, 100 nM
T3 construct: Caliper
T3 sequence (Q08499 1-673 isoform Q08499-2): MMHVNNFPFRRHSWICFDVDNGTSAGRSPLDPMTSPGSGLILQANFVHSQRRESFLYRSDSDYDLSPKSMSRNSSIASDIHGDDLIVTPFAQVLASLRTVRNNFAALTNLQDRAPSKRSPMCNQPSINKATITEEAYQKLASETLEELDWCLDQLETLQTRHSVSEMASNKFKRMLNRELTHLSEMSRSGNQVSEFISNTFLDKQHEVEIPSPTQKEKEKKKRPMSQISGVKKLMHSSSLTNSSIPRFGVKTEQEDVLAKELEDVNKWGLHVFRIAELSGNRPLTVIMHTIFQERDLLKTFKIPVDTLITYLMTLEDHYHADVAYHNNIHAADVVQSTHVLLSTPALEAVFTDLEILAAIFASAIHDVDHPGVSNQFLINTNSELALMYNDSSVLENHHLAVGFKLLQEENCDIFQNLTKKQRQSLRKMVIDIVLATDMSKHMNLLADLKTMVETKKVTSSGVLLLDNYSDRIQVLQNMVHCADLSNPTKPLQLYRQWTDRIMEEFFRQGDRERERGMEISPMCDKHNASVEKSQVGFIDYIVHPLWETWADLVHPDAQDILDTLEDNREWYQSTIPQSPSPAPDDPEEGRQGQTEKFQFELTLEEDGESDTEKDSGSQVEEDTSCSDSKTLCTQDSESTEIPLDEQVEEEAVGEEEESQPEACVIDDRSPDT
Description: as §1

PDE1B = biological target: T4, PDE1B (Homo sapiens, UniProt Q01064); test: as above; format: biochemical; conditions: 100 nM
T4 construct: Caliper
Description: as §1

PDE3B = biological target: T5, PDE3B (Homo sapiens, UniProt Q13370); test: as above; format: biochemical; conditions: 100 nM
T5 construct: Caliper
Description: as §1

PDE4A1A = biological target: T6, PDE4A1A (Homo sapiens, UniProt P27815); test: as above; format: biochemical; conditions: 100 nM
T6 construct: Caliper
Description: as §1

PDE5A1 = biological target: T7, PDE5A1 (Homo sapiens, UniProt O76074); test: as above; format: biochemical; conditions: PDE5A1, 100 nM
T7 construct: Caliper
Description: as §1

PDE4D7 = biological target: T8, PDE4D7 (Homo sapiens, UniProt Q08499); test: as above; format: biochemical; conditions: PDE4D7, 100 nM
T8 construct: Caliper
Description: as §1

PDE4B1 = biological target: T9, PDE4B1 (Homo sapiens, UniProt Q07343); test: as above; format: biochemical; conditions: PDE4B1, 100 nM
T9 construct: Caliper
Description: as §1

PDE1A1 = test: as above; format: biochemical; conditions: PDE1A1, 100 nM
Description: as §1

PDE8A1 = biological target: T10, PDE8A1 (Homo sapiens, UniProt O60658); test: as above; format: biochemical; conditions: PDE8A1, 100 nM
T10 construct: Caliper
Description: as §1

PDE3A = PDE3A (Homo sapiens, UniProt Q14432); test: as above; format: biochemical; conditions: 100 nM
PDE3A, sequence (Q14432 whole entry): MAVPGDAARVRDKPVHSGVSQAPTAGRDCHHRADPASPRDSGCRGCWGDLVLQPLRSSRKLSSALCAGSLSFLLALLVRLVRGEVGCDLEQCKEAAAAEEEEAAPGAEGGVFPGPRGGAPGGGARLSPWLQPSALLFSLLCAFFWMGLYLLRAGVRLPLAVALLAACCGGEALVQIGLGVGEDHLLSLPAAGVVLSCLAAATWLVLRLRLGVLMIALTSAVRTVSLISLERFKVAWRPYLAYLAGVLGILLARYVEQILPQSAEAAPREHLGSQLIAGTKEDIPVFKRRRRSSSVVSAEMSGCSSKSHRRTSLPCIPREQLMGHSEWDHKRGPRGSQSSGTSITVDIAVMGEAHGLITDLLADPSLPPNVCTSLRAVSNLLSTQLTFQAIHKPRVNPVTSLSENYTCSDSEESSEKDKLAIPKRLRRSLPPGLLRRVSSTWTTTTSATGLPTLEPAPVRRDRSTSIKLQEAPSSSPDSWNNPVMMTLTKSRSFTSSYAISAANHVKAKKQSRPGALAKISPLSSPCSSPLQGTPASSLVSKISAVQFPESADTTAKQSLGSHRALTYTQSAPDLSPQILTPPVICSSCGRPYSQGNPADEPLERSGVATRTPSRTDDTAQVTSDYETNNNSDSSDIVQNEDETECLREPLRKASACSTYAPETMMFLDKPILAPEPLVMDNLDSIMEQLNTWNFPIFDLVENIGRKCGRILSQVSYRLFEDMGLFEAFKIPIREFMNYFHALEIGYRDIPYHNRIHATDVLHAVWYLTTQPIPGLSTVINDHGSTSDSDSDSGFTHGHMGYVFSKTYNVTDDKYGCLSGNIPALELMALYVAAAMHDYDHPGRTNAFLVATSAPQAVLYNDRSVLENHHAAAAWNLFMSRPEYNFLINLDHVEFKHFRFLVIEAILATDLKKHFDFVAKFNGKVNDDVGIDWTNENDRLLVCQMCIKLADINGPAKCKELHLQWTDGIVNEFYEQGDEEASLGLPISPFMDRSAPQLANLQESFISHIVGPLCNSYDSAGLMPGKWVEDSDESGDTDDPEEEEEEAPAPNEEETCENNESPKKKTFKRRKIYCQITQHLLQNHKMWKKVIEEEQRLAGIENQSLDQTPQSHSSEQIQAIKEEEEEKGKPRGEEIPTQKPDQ
Description: as §1

PDE10A1 = biological target: T11, PDE10A1 (Homo sapiens, UniProt Q9Y233); test: as above; format: biochemical; conditions: PDE10A1, 100 nM
T11 construct: Caliper
Description: as §1

PDE7B = biological target: T12, PDE7B (Homo sapiens, UniProt Q9NP56); test: as above; format: biochemical; conditions: 100 nM
T12 construct: Caliper
T12 sequence (Q9NP56 whole entry, species assumed): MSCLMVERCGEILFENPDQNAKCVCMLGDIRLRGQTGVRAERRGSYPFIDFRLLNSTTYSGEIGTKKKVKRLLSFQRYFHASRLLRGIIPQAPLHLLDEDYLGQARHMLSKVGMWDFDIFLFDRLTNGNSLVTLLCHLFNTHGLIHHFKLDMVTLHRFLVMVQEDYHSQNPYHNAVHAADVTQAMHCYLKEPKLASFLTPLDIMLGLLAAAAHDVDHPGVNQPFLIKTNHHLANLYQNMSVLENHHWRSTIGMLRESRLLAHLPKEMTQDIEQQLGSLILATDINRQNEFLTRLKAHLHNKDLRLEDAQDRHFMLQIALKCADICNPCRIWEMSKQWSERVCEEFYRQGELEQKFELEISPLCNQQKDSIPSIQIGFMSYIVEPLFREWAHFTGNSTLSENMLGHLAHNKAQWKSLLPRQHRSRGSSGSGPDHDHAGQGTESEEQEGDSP
Description: as §1

PDE9A2 = biological target: T13, PDE9A2 (Homo sapiens, UniProt O76083); test: as above; format: biochemical; conditions: PDE9A2, 100 nM
T13 construct: Caliper
Description: as §1

PDE1C = biological target: T14, PDE1C (Homo sapiens, UniProt Q14123); test: as above; format: biochemical; conditions: 100 nM
T14 construct: Caliper
T14 sequence (Q14123 whole entry, species assumed): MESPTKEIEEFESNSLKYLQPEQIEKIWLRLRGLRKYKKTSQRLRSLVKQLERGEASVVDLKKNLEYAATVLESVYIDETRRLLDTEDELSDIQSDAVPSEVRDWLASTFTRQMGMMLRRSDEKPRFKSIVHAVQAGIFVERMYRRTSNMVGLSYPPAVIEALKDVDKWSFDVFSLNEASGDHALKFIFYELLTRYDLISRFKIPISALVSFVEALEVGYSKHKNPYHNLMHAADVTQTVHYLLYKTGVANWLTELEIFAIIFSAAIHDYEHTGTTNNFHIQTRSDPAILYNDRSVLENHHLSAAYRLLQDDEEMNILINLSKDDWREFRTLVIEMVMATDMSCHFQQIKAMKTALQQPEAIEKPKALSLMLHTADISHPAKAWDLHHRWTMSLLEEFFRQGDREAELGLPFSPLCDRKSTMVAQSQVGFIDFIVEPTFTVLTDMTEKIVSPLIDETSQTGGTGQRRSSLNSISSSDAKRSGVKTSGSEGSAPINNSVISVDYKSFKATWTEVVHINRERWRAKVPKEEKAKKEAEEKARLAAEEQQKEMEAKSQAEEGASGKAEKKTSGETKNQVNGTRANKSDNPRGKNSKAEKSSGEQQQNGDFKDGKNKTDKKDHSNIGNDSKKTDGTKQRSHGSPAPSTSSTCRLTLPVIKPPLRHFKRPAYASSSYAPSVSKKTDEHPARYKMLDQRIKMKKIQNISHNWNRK
Description: as §1

PDE7A = biological target: T15, PDE7A (Homo sapiens, UniProt Q13946); test: as above; format: biochemical; conditions: 100 nM
T15 construct: Caliper
Description: as §1

HeLa cells = test: Knockdown of SLFN12 expression using shRNA and testing for drug sensitivity; format: cell-based; conditions: 72 hours
Excerpt: FIG. 15A is a scatterplot showing mRNA robust multichip average (RMA) expression values for PDE3A and SLFN12 from the Cancer Cell Line Encyclopedia (CCLE) database (a detailed genetic characterization of a large panel of human cancer cell lines) with sensitive cell lines indicated (Barretina et al., Nature 483, 603-607, 2012). 21 sensitive cell lines were binned in three groups of 7 based on area under the curve (AUC) rank. FIG. 15B is a bar graph showing results of a Fisher's exact test on DNMDP sensitivity of cell lines with high expression of both SLFN12 and PDE3A (RMA Log 2>5) compared to other cell lines. The top half of the bar on the right indicates melanoma cell lines. FIG. 15C is a scatterplot showing mRNA RPKM+1 expression values for PDE3A and SLFN12 from RNA sequencing data. FIG. 15D is a bar graph showing qPCR expression changes of SLFN12 in HeLa cells transduced with shSLFN12 normalized to GAPDH. FIG. 15E is a plot showing viability of HeLa cells transduced with indicated shRNA reagents and treated with indicated concentrations of DNMDP for 72 hours.
Constructs expressing shRNAs targeting SLFN12, or the control vector, were packaged into lentiviruses and delivered into HeLa cells by viral transduction. […] SLFN12-targeting shRNAs were used, all of which were obtained from the TRC (CloneIDs: TRCN0000152141 and TRCN0000153520). […]

[1] = replicate #1, read-out: % inh. #1
[2] = replicate #2, read-out: % inh. #2

T1 sequence (Q9Y233 267-1055, species assumed): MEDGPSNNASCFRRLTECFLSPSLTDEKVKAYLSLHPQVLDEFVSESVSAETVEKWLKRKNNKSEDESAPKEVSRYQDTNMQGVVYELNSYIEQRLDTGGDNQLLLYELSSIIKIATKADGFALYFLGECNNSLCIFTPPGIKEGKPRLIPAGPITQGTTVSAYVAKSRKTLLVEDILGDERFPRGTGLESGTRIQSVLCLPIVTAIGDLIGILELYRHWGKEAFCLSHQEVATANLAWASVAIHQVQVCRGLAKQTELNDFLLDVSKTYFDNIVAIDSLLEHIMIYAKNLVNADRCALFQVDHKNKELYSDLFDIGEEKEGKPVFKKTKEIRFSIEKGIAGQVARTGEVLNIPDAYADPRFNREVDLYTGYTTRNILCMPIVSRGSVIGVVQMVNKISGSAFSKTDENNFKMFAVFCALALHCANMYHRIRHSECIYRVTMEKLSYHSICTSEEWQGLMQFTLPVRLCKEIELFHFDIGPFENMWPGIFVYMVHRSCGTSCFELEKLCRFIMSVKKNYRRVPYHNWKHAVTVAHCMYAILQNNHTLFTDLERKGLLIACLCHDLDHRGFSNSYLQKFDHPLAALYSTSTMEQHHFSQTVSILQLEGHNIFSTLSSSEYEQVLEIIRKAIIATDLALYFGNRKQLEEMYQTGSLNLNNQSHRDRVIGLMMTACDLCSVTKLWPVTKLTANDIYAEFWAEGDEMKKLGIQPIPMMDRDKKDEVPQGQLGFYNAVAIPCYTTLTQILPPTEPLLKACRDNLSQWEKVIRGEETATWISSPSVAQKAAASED

In the case of `CCN(CC)c1ccc(C2=NNC(=O)CC2C)cc1[N+](=O)[O-]` (stereo not shown) [DNMDP, 6-(4-(diethylamino)-3-nitrophenyl)-5-methyl-4,5-dihydropyridazin-3(2H)-one], the inhibition at 0.1 µM (PDE10A2; [1]) is reported as 67%, the inhibition at 0.1 µM (PDE10A2; [2]) is reported as 70% and the inhibition at 0.1 µM (PDE10A2; read-out: % inhibition) is reported as 68%. For the same molecule, the inhibition at 0.1 µM (PDE2A; read-out: % inhibition) was 8%, the inhibition at 0.1 µM (PDE2A; [1]) was 6% and the inhibition at 0.1 µM (PDE2A; [2]) was 10%. It also gave an inhibition at 0.1 µM (PDE4D3; [1]) of 14%, an inhibition at 0.1 µM (PDE4D3; [2]) of 16% and an inhibition at 0.1 µM (PDE4D3; read-out: % inhibition) of 15%. The inhibition at 0.1 µM (PDE1B; read-out: % inhibition) was -2%, the inhibition at 0.1 µM (PDE1B; [1]) was -5% and the inhibition at 0.1 µM (PDE1B; [2]) was 0%. It also gave an inhibition at 0.1 µM (PDE3B; read-out: % inhibition) of 97%, an inhibition at 0.1 µM (PDE3B; [1]) of 98% and an inhibition at 0.1 µM (PDE3B; [2]) of 97%. The inhibition at 0.1 µM (PDE4A1A; read-out: % inhibition) was 16%, the inhibition at 0.1 µM (PDE4A1A; [1]) was 14% and the inhibition at 0.1 µM (PDE4A1A; [2]) was 18%. It also gave an inhibition at 0.1 µM (PDE5A1; [1]) of 16%, an inhibition at 0.1 µM (PDE5A1; [2]) of 16% and an inhibition at 0.1 µM (PDE5A1; read-out: % inhibition) of 16%. It also gave an inhibition at 0.1 µM (PDE4D7; [1]) of 19%, an inhibition at 0.1 µM (PDE4D7; [2]) of 20% and an inhibition at 0.1 µM (PDE4D7; read-out: % inhibition) of 20%. For the same molecule, the inhibition at 0.1 µM (PDE4B1; [1]) was 21%, the inhibition at 0.1 µM (PDE4B1; [2]) was 20% and the inhibition at 0.1 µM (PDE4B1; read-out: % inhibition) was 21%. The “% inhibition” value (PDE1A1) was 5%, the “% inh. #1” value (PDE1A1; replicate #1) was 3% and the “% inh. #2” value (PDE1A1; replicate #2) was 7%. For the same molecule, the inhibition at 0.1 µM (PDE8A1; [1]) was 10%, the inhibition at 0.1 µM (PDE8A1; [2]) was 12% and the inhibition at 0.1 µM (PDE8A1; read-out: % inhibition) was 11%. The inhibition at 0.1 µM (PDE3A; read-out: % inhibition) was 95%, the inhibition at 0.1 µM (PDE3A; [1]) was 95% and the inhibition at 0.1 µM (PDE3A; [2]) was 95%. The inhibition at 0.1 µM (PDE10A1; [1]) was 61%, the inhibition at 0.1 µM (PDE10A1; [2]) was 65% and the inhibition at 0.1 µM (PDE10A1; read-out: % inhibition) was 63%. The inhibition at 0.1 µM (PDE7B; read-out: % inhibition) was 8%, the inhibition at 0.1 µM (PDE7B; [1]) was 5% and the inhibition at 0.1 µM (PDE7B; [2]) was 11%. The inhibition at 0.1 µM (PDE9A2; [1]) was 0%, the inhibition at 0.1 µM (PDE9A2; [2]) was 5% and the inhibition at 0.1 µM (PDE9A2; read-out: % inhibition) was 2%. It also gave an inhibition at 0.1 µM (PDE1C; read-out: % inhibition) of 5%, an inhibition at 0.1 µM (PDE1C; [1]) of 2% and an inhibition at 0.1 µM (PDE1C; [2]) of 9%. The inhibition at 0.1 µM (PDE7A; read-out: % inhibition) was 22%, the inhibition at 0.1 µM (PDE7A; [1]) was 24% and the inhibition at 0.1 µM (PDE7A; [2]) was 20%. For the same molecule, the “sensitivity after reduction of SLFN12 expression (shRNA)” value (HeLa cells) was “decreased sensitivity”.
